Results from the supplement of paper PMC6045584.
± gives the standard deviation of the averaged measurements.

Experiments:
[1] = compound: Cc1nc(Nc2n[nH]c3c2CN(C(=O)N[C@H](CN(C)C)c2ccccc2)C3(C)C)c2sccc2n1; assay: surviving fraction relative to DMSO-only wells; higher = less growth inhibition; conditions: exposure time: 5 days
Summary of the method: (§1)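 Inhibitors were tested at 0.5, 1, 5, 10, 50, 100, 500 and 1000 nM, applied continuously for five days beginning 24 hours after log-phase tumour cells were seeded at 250–500 per well in 384-well plates. CellTiter-Glo luminescence served as the viability measure, expressed as surviving fraction against the median of DMSO-only wells. Each line, screened three times, was kept only with replicate Pearson r >0.7 and median Z' >0.3.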

MK0752 = compound: O=C(O)CC[C@H]1CC[C@@](c2cc(F)ccc2F)(S(=O)(=O)c2ccc(Cl)cc2)CC1 [MK0752]; assay: as above; conditions: exposure time: 5 days
Summary of the method: as §1

Test System | surviving fraction ([1]; 0.5 nM) | surviving fraction ([1]; 1 nM) | surviving fraction ([1]; 5 nM) | surviving fraction ([1]; 10 nM) | surviving fraction ([1]; 50 nM) | surviving fraction ([1]; 100 nM) | surviving fraction ([1]; 500 nM) | surviving fraction ([1]; 1000 nM) | surviving fraction (MK0752; 0.5 nM) | surviving fraction (MK0752; 1 nM) | surviving fraction (MK0752; 5 nM) | surviving fraction (MK0752; 10 nM) | surviving fraction (MK0752; 50 nM) | surviving fraction (MK0752; 100 nM) | surviving fraction (MK0752; 500 nM) | surviving fraction (MK0752; 1000 nM)
C33A CERVIX | 0.67 ± 0.035 | 0.62 ± 0.016 | 0.298 ± 0.049 | 0.26 ± 0.024 | 0.221 ± 0.011 | 0.214 ± 0.024 | 0.146 ± 0.0049 | 0.0663 ± 0.009 | 1.12 ± 0.13 | 1.11 ± 0.08 | 1.06 ± 0.14 | 1.19 ± 0.083 | 1.09 ± 0.066 | 1.19 ± 0.18 | 1.08 ± 0.16 | 1.13 ± 0.1
CAL72 BONE | 1.04 ± 0.066 | 0.993 ± 0.032 | 0.691 ± 0.061 | 0.556 ± 0.058 | 0.435 ± 0.025 | 0.399 ± 0.011 | 0.194 ± 0.023 | 0.0947 ± 0.0081 | 1.04 ± 0.025 | 1.1 ± 0.043 | 1.084 ± 0.0046 | 1.09 ± 0.021 | 1.11 ± 0.018 | 1.14 ± 0.034 | 1.102 ± 0.011 | 1.12 ± 0.04
G292 BONE | 0.782 ± 0.028 | 0.642 ± 0.029 | 0.42 ± 0.0074 | 0.376 ± 0.004 | 0.324 ± 0.014 | 0.287 ± 0.012 | 0.166 ± 0.0052 | 0.0753 ± 0.0032 | 0.974 ± 0.015 | 1.03 ± 0.053 | 1.05 ± 0.033 | 1.05 ± 0.013 | 1.01 ± 0.018 | 0.989 ± 0.019 | 0.914 ± 0.037 | 0.86 ± 0.037
HUO3N1 BONE | 0.971 ± 0.018 | 0.942 ± 0.034 | 0.853 ± 0.011 | 0.781 ± 0.024 | 0.683 ± 0.015 | 0.625 ± 0.038 | 0.462 ± 0.029 | 0.407 ± 0.0059 | 1.02 ± 0.023 | 1.03 ± 0.021 | 1.051 ± 0.0083 | 1.08 ± 0.042 | 1.07 ± 0.042 | 1.08 ± 0.052 | 1.01 ± 0.02 | 0.9563 ± 0.0042
LNCAP PROSTATE | 0.773 ± 0.021 | 0.632 ± 0.054 | 0.215 ± 0.0067 | 0.196 ± 0.019 | 0.098 ± 0.017 | 0.097 ± 0.012 | 0.0357 ± 0.0032 | 0.0227 ± 0.0029 | 0.936 ± 0.14 | 0.927 ± 0.12 | 1.03 ± 0.26 | 0.887 ± 0.09 | 1.01 ± 0.098 | 1.02 ± 0.074 | 1.04 ± 0.21 | 1.01 ± 0.12
SCC003 HEADNECK | 0.993 ± 0.094 | 1.05 ± 0.094 | 0.61 ± 0.043 | 0.418 ± 0.022 | 0.278 ± 0.029 | 0.275 ± 0.028 | 0.227 ± 0.021 | 0.183 ± 0.012 | 1.19 ± 0.02 | 1.12 ± 0.15 | 1.14 ± 0.045 | 1.13 ± 0.055 | 1.19 ± 0.12 | 1.24 ± 0.11 | 1.19 ± 0.13 | 1.2 ± 0.039
